Laboratory results from ChEMBL document CHEMBL3507680, “University of Dundee, Gates Library screen for HepG2 cell viability”.

Assay: Human HepG2 cell viability assay in 384 well format
Assay type: toxicity, cell-based
Parameters: dose 125 nL, time 70.5 hour; concentration not given beside the values
Conditions: HepG2 cells, read-out: Inhibition

Compound | cytotoxicity at 70.5 h
CC(=O)N1Cc2nccn2CC(CNC(=O)c2cnccn2)C1 (configuration not stated) | -13.1%
CN1CC[C@H]2[C@H](C[C@@H](Cn3cncn3)N2c2nccs2)C1 | -8.05%
Cc1cccc(CN2CC3C[C@]3(NC(=O)c3ccoc3)C2)n1 (some centres not stated) | -12.4%
CN1CCN(c2ncnc3c2CCN(Cc2nccn2C)CC3)CC1 | 6.69%
c1coc(CN2CC[C@@H]3O[C@@H](COCC4CCOCC4)CC[C@@H]32)c1 | -0.874%
Cc1ccc(C(=O)N2CCC3(CCN(Cc4ccccn4)C3=O)C2)cn1 (configuration not stated) | -5.23%
O=C(COC[C@@H]1CC[C@H]2[C@H](CCN2Cc2ccco2)O1)N1CCCC1 | 24.3%
CCN(CC)CC1CN(Cc2ccco2)Cc2nccn2C1 (configuration not stated) | -4.92%
Cn1ccc(C(=O)NC2CCC23CCN(Cc2nccs2)CC3)c1 (configuration not stated) | -4.21%
COCCn1c2c(ccc1=O)CCN(Cc1ccoc1)CC2 | -3.82%
Cc1cccc(CN2CCc3ncnc(Oc4cccnc4)c3CC2)n1 | 27.9%
COc1nn(C)c2c1CCCN(C(=O)c1ccccc1F)C2 | -95.9%
COCCO[C@H]1CCN(C(=O)c2ccco2)[C@H]1Cc1cnn(C)c1 | -90.2%
OCc1nnn2c1CN(Cc1cccnc1)CCC2 | -115%
CCc1ccc(NC(=O)N2C[C@H]3CC[C@@]4(N=C(C)N(C)C4=O)[C@H]3C2)cc1 | 44.3%
CS(=O)(=O)N1C[C@@H]2COC[C@H](C(=O)Nc3cnccn3)[C@@H]2C1 | 59.3%
C[C@H]1C[C@@H]2CCN(C(=O)c3cnccn3)C[C@H]2O1 | -8.48%
C[C@H]1C[C@@H]2CCN(C(=O)c3ccccn3)C[C@H]2O1 | -2.22%
C[C@@H]1C[C@H]2CN(C(=O)c3ccncn3)C[C@H]2O1 | -14.1%
CC(C)C(=O)N1CCN(C(=O)N(C)C)CC2(CC(=O)N(C)C2)C1 (configuration not stated) | 37.2%
Cc1ccc(CNC(=O)c2nn(C)c3c2CS(=O)(=O)CC3)o1 | -2.5%
Cn1nc(C(=O)NCc2cccs2)c2c1CCS(=O)(=O)C2 | -6.12%

Compound | cytotoxicity at 70.5 h
COc1ccccc1C(=O)Nc1c(F)c(C(=O)N2CCCC2)nn1C | -0.747%
Cn1nc(C(=O)N2CCCC2)c(F)c1NC(=O)Cc1ccccc1 | 28.2%
CC(C)CNC(=O)c1nn(C)c(NC(=O)Cc2ccccc2)c1F | -9.39%
O=C(CSc1ccccn1)NCc1ccc2c(c1)CCC(=O)N2 | 40.7%
CCOCCNS(=O)(=O)c1cc(C)c2nc(O)cc(C)c2c1 | 21%
Cc1nnc(SCC(=O)NCc2ccc3c(c2)CCC(=O)N3)n1C | -3%
COc1cccc(OCCNS(=O)(=O)Cc2ccccc2)c1 | 19.4%
Cc1cccc(N(C)Cc2cc(=O)n3oc(C)cc3n2)c1 | 3.47%
Cc1cc2nc(CN(C)c3ccc(Cl)cc3)cc(=O)n2o1 | 22%
O=C1CNc2ncnc(N3CCN(Cc4ccccc4F)CC3)c2N1 | -7.69%
Cc1nn(CCNc2ncnc3c2NC(=O)CN3)c(C)c1Cl | -8.12%
Cc1cc(C)n(CCNc2ncnc3c2NC(=O)CN3)n1 | -15.7%
O=C1CNc2ncnc(Nc3cnn(Cc4ccccc4F)c3)c2N1 | 27.9%
COc1ccc(C(C)Nc2ncnc3c2NC(=O)CN3)cc1 (configuration not stated) | -14.1%
COc1cccc(C(C)Nc2ncnc3c2NC(=O)CN3)c1 (configuration not stated) | 11%
Cc1ccccc1CN1CCN(c2ncnc3c2NC(=O)CN3)CC1 | -8.36%
O=C1CNc2ncnc(NCc3cccs3)c2N1 | -5.96%
O=C1CNc2ncnc(N3CCN(Cc4ccccc4)CC3)c2N1 | 12.6%
COc1ccc(CNc2ncnc3c2NC(=O)CN3)cc1 | -6.06%
CCCc1noc(C2CCN(S(=O)(=O)c3cccs3)CC2)n1 | -2.96%
CC(C)c1noc(C2CCN(C(=O)c3cccs3)CC2)n1 | -5.14%
CCS(=O)(=O)N1CCCCC1c1nc(C)no1 (configuration not stated) | -5.51%

Compound | cytotoxicity at 70.5 h
CC(=O)NCc1nnc2n1CCN(Cc1cccs1)C2 | -11.7%
CCS(=O)(=O)N1CCCC2(CCCN2Cc2cccc(Cl)c2)C1 (configuration not stated) | -4.53%
CNC(=O)CN1CCO[C@H]2CN(C(=O)c3ccncc3F)C[C@H]21 | -3.77%
O=S(=O)(C1CC1)N1CCO[C@@H]2CN(Cc3cccs3)C[C@@H]2C1 | -5.47%
CC(C)N1CCO[C@H]2CN(C(=O)c3ccncc3F)C[C@H]21 | -4.09%
O=S(=O)(c1ccccc1)N1CCC2(CCCN2Cc2cccc(Cl)c2)C1 (configuration not stated) | -11.2%
CCCS(=O)(=O)N1C[C@@H]2CN(Cc3cccs3)CCO[C@@H]2C1 | -14.7%
O=S(=O)(C1CC1)N1C[C@@H]2CN(Cc3ccoc3)CCO[C@@H]2C1 | -15.4%
Cc1cc(C(=O)N2C[C@@H]3COC[C@]3(CN(C)C)C2)c(C)o1 | -17.3%
Cc1cc(F)ccc1C(=O)N1C[C@@H]2COC[C@]2(CN(C)C)C1 | -14.9%
CCOCC1c2c(cnn2CC2CC2)CCN1C(=O)c1ccncn1 (configuration not stated) | 20.9%
Cn1ncc2c1C(COCC1CC1)N(C(=O)c1ccncn1)CC2 (configuration not stated) | 5.78%
O=C1C[C@@H]2[C@H](CCN2Cc2ccco2)N1c1ccsc1 | 9.07%
O=S(=O)(c1ccccc1)N1C[C@@H]2COC[C@]2(CN2CCOCC2)C1 | 13.1%
CN(C)S(=O)(=O)N1C[C@H]2CCC[C@@]2(COCc2ccccn2)C1 | 13.2%
Cc1ccc(CN2CC[C@H]3[C@H]2CC(=O)N3c2ccsc2)o1 | 5.86%
c1coc(CN2CC[C@H]3O[C@@H](COCC4CC4)CC[C@H]32)c1 | 7.95%
CCO[C@H]1CO[C@@]2(CCCN(Cc3scnc3C)C2)C1 | 14.7%
Cn1c2c(ccc1=O)CCN(Cc1ccoc1)CC2 | 4.43%
CN(C)C(=O)COC[C@H]1CC[C@@H]2[C@@H](CCN2Cc2ccco2)O1 | 7.59%
Fc1ccc(CN2CCc3ncnc(C4CC4)c3CC2)cc1 | 1.98%
c1ccc(CN2Cc3nccn3CC(Cn3cncn3)C2)nc1 (configuration not stated) | 2.19%

Compound | cytotoxicity at 70.5 h
O=C(c1ccsc1)N1CCC2(CCN(Cc3ccccn3)C2=O)C1 (configuration not stated) | 2.48%
Cc1cc(CN2CCC3(CC2)CC(Nc2ncccn2)CO3)nn1C (configuration not stated) | -35.4%
CC(C)CS(=O)(=O)N1CCC2(CN(c3ccsc3)C(=O)CN2C)C1 (configuration not stated) | -111%
CO[C@@H]1CC[C@H]2[C@H]1OCCN2CC1CC1 | -83.7%
Cc1nc(-c2cc(C(=O)NCCN3CCOCC3)c3ccccn23)cs1 | -131%
Cc1nc(CN2CCOCC3(CCN(c4cnccn4)CC3)C2)cs1 | -82.2%
c1ccc(CN2CCCn3nnc(CNc4ncccn4)c3C2)nc1 | -87.8%
COCCO[C@H]1CCN(C(=O)c2cccnc2)[C@H]1Cc1cnn(C)c1 | -96.2%
CN1CC(=O)N(c2ccsc2)CC12CCN(S(=O)(=O)C1CC1)C2 (configuration not stated) | -96.5%
c1cnc(NCc2nnn3c2CN(Cc2cccs2)CCC3)nc1 | -115%
CC(C)(CO)CNC(=O)c1cc(-c2cc[nH]n2)n2ccccc12 | -97.3%
C1CC(CO[C@@H]2CC[C@H]3[C@H]2OCCN3CC2CC2)CCO1 | -82.4%
C1CCC(CO[C@@H]2CC[C@H]3[C@H]2OCCN3CC2CCOCC2)C1 | -84.4%
CCO[C@@H]1CC[C@H]2[C@H]1OCCN2CC1CCC1 | -104%
COc1nn(C)c2c1CCCN(C(=O)c1ccc3ccccc3n1)C2 | 8.68%
O=C(c1cnccn1)N1C[C@@H](OCc2ccncc2)[C@@H]2OCCC[C@@H]21 | -8.9%
O=C1COC2(CCN(Cc3ccco3)CC2)CN1 | -7.36%
CCOCC1CN(Cc2ccc(OC)cc2)Cc2nn(CC3CC3)cc21 (configuration not stated) | -5.83%
O=C(C1CCC1)N1C[C@@H]2CCN(c3cccnc3)C[C@@H]2C1 | 30%
Cn1ccnc1CN1C[C@@H]2[C@@H](C1)OCC(=O)N2CC1CCCC1 | -21.4%
c1csc(NCc2n[nH]c3c2CCN(CC2CC2)C3)n1 | -14.2%
O=C(CC1CCCC1)N1C[C@H](OCc2ccncc2)[C@H]2OCCC[C@H]21 | -27.1%

Compound | cytotoxicity at 70.5 h
CN(C)C(=O)CC1CC2(CCN(Cc3ccco3)CC2)c2ccccc21 (configuration not stated) | -27.6%
O=C1COC2(CCN(CC3CC3)CC2)CN1c1cncnc1 | -13.3%
CNC(=O)CN1CCc2c(CNc3nccs3)n[nH]c2C1 | -10.9%
Cn1cnc(S(=O)(=O)N2CCN(CC3CC3)c3ncccc3C2)c1 | -6.52%
CC(C)CN1CCN(S(=O)(=O)c2cn(C)cn2)Cc2cccnc21 | -10.6%
Cc1csc(CN2CCC[C@]3(C[C@@H](Oc4ccccn4)CO3)C2)n1 | 1.82%
O=C(NC[C@H]1OC[C@@H]2CN(Cc3ccco3)CC[C@@H]21)c1cccnc1 | 6.02%
Cc1cccc(CN2CCc3ncnc(N4CCN(C)CC4)c3CC2)n1 | -0.603%
c1cc(CN2Cc3nccn3CC(Cn3cncn3)C2)ccn1 (configuration not stated) | 3.67%
O=C1CO[C@@H]2CN(CC3CCOCC3)C[C@H]2N1Cc1ccncc1 | -2.17%
O=C(Nc1cccnc1)[C@@H]1COC[C@H]2CN(C3CCCC3)C[C@H]21 | -124%
c1cncc(OC[C@@]23CCO[C@@H]2CCN(Cc2cccs2)C3)c1 | -100%
Cn1cc(C(=O)NCc2cn3c(n2)CN(CC2CCOC2)CC3)cn1 (configuration not stated) | -110%
CNC(=O)CN1CCCC12CCN(Cc1c[nH]cn1)CC2 | -24.2%
CCOCC1CN(Cc2ccccn2)Cc2nn(CC3CC3)cc21 (configuration not stated) | -4.99%
COCC1c2c(cnn2C)CCN1Cc1ccc(C)cc1 (configuration not stated) | 42.3%
COCC1c2c(cnn2C)CCN1Cc1cccc(C)c1 (configuration not stated) | -1.18%
CC(C)N1[C@H](CN2CCCC2)C[C@@H]2CN(Cc3ccoc3)CC[C@@H]21 | -10%
c1cncc(CN2CC[C@@H]3O[C@H](COCCN4CCCC4)CC[C@@H]32)c1 | 5.3%
